Test results taken from ChEMBL document CHEMBL1201862, “PubChem BioAssay data set” (2004).
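48-hour exposure; five concentrations; linearly interpolated endpoints. GI50 is the concentration that inhibits growth by half.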 Active and inactive are the calls of the source. Cut-off read from the data, not from the text of the source: active = GI50 up to about 1.1 µM and inactive = higher.

Experiments:
Assay in all cases: NCI-60 cell line screen, 48 h
[1] = test system: DLD-1
[2] = test system: DMS-114
[3] = test system: HOP-18
[4] = test system: KM-20L2
[5] = test system: LXFL 529
[6] = test system: M19-MEL
[7] = test system: SNB-78
[8] = test system: XF498
[9] = test system: RXF 631

Row | SMILES | GI50 [1] | GI50 [2] | GI50 [3] | GI50 [4] | GI50 [5] | GI50 [6] | GI50 [7] | GI50 [8] | GI50 [9]
1 | Nn1c(CCCl)nc2c(Br)cc(Br)cc2c1=O | 26.8 µM (inactive) | 22.5 µM (inactive) | 33.3 µM (inactive) | 26 µM (inactive) | 24.7 µM (inactive) | 32.1 µM (inactive) | 34 µM (inactive) | 20.6 µM (inactive) | –
2 | CN(C(=O)c1ccc(Cl)cc1)C(=S)N1CCN(c2ccccn2)CC1 | > 100 µM (inactive) | 69.8 µM (inactive) | > 100 µM (inactive) | > 100 µM (inactive) | > 100 µM (inactive) | > 100 µM (inactive) | > 100 µM (inactive) | – | –
3 | Cc1c(Cl)ccc2c1NC(=O)C2(O)CC(=O)c1ccc2ccccc2c1 (stereo unspecified) | 79.8 µM (inactive) | 21.1 µM (inactive) | > 100 µM (inactive) | 69 µM (inactive) | – | – | – | > 100 µM (inactive) | 57.1 µM (inactive)
4 | CCCCN(CCCC)CC(C(=O)Nc1ccc([N+](=O)[O-])cc1[N+](=O)[O-])/C(C)=N\NC(=O)c1ccncc1 (stereo unspecified) | > 100 µM (inactive) | > 100 µM (inactive) | – | > 100 µM (inactive) | > 100 µM (inactive) | > 100 µM (inactive) | > 100 µM (inactive) | > 100 µM (inactive) | > 100 µM (inactive)
5 | Cn1c(=O)c2/c(n(C)c1=O)=N\C=c1\c(=O)n(C)c(=O)n(C)\c1=N\C=2 | > 100 µM (inactive) | > 100 µM (inactive) | > 100 µM (inactive) | > 100 µM (inactive) | > 100 µM (inactive) | > 100 µM (inactive) | 76.2 µM (inactive) | – | > 100 µM (inactive)
6 | Cc1ccc([N+](=O)[O-])cc1NC(=O)C(=O)Cc1nc2ccc(C(=O)c3ccccc3)cc2nc1O | > 100 µM (inactive) | 90.6 µM (inactive) | > 100 µM (inactive) | > 100 µM (inactive) | > 100 µM (inactive) | > 100 µM (inactive) | – | > 100 µM (inactive) | > 100 µM (inactive)
7 | COC(=O)C1=Cc2c(cc(OC)c(OC)c2OC)[C@H](c2ccc(OC)c(OC)c2OC)C1C(=O)OC (stereo partly specified) | > 100 µM (inactive) | 61.7 µM (inactive) | – | > 100 µM (inactive) | > 100 µM (inactive) | > 100 µM (inactive) | 40.8 µM (inactive) | – | 71.8 µM (inactive)
8 | Cn1c2ccccc2c2cc(-c3ccccc3)c3c(c21)C(=O)c1ccccc1C3=O | 13.3 µM (inactive) | 12.5 µM (inactive) | – | – | 14.3 µM (inactive) | 2.25 µM (inactive) | 15.1 µM (inactive) | 14.6 µM (inactive) | 34 µM (inactive)
9 | CC1OC(OC2C[C@](O)(C(=O)CF)Cc3c(O)c4c(c(O)c32)C(=O)c2ccccc2C4=O)CC(N)C1O (stereo partly specified) | 0.0484 µM (active) | < 0.0109 µM (active) | – | 0.0574 µM (active) | 0.0596 µM (active) | 0.0178 µM (active) | 0.241 µM (active) | < 0.0164 µM (active) | –
10 | O=C(CCc1nnc(S)[nH]1)Nc1cc(Cl)c(Cl)cc1Cl | – | > 100 µM (inactive) | – | > 100 µM (inactive) | > 100 µM (inactive) | > 100 µM (inactive) | > 100 µM (inactive) | > 100 µM (inactive) | > 100 µM (inactive)
11 | CN(C)c1ccc(C(=C2C=CC(=[N+](C)C)C=C2)c2ccc(N(C)C)cc2)cc1 [GENTIAN VIOLET] | 0.0673 µM (active) | 0.13 µM (active) | – | 0.206 µM (active) | 0.0579 µM (active) | 0.173 µM (active) | 0.637 µM (active) | 0.0363 µM (active) | 0.185 µM (active)
12 | CN(C)c1ccc(C(=C(c2ccc(N(C)C)cc2)c2ccc(N(C)C)cc2)c2ccc(N(C)C)cc2)cc1 | 16.1 µM (inactive) | 15.4 µM (inactive) | 7.01 µM (inactive) | 16.9 µM (inactive) | 12.3 µM (inactive) | 26.5 µM (inactive) | 82.2 µM (inactive) | – | 13.6 µM (inactive)
13 | CC1(C)OCN(c2ccc(S(N)(=O)=O)cc2)Cn2c1nc1ccccc12 | > 100 µM (inactive) | > 100 µM (inactive) | > 100 µM (inactive) | > 100 µM (inactive) | > 100 µM (inactive) | > 100 µM (inactive) | > 100 µM (inactive) | > 100 µM (inactive) | –
14 | Cc1cc2c(c3oc(C4(C)OC4C4OC4C)cc(=O)c13)C(=O)c1c(O)c(C3CC(C)(N(C)C)C(O)C(C)O3)cc(C3CC(N(C)C)C(O)C(C)O3)c1C2=O (stereo unspecified) | 0.0025 µM (active) | – | 0.00069 µM (active) | – | 0.000227 µM (active) | – | 0.0025 µM (active) | – | 0.000161 µM (active)
15 | CCOP(=O)(OCC)C(C(=O)OC)C(=O)C(=O)Nc1cccc([N+](=O)[O-])c1 (stereo unspecified) | > 100 µM (inactive) | > 100 µM (inactive) | > 100 µM (inactive) | > 100 µM (inactive) | > 100 µM (inactive) | > 100 µM (inactive) | > 100 µM (inactive) | > 100 µM (inactive) | > 100 µM (inactive)
16 | Cc1ccc(/C=C/C(=O)c2sc(C(N)=S)nc2C)cc1 | > 100 µM (inactive) | – | > 100 µM (inactive) | > 100 µM (inactive) | – | > 100 µM (inactive) | > 100 µM (inactive) | – | –
17 | C=CC(=O)N1C/C(=C\c2ccc(Cl)c(Cl)c2)C(=O)/C(=C/c2ccc(Cl)c(Cl)c2)C1 | 0.0374 µM (active) | 0.12 µM (active) | 0.362 µM (active) | 0.216 µM (active) | 0.127 µM (active) | 0.184 µM (active) | 0.261 µM (active) | – | 0.449 µM (active)
18 | COc1ccc(-c2c(N)[n+]([O-])c3ccccc3[n+]2[O-])cc1OC | > 100 µM (inactive) | > 100 µM (inactive) | > 100 µM (inactive) | > 100 µM (inactive) | > 100 µM (inactive) | > 100 µM (inactive) | > 100 µM (inactive) | – | 86.3 µM (inactive)
19 | C=C1C(=O)OC2CC3(C)C=CC(=O)C(=C)C3CC12 (stereo unspecified) | 0.329 µM (active) | 3.61 µM (inactive) | 3.06 µM (inactive) | 2.28 µM (inactive) | 0.664 µM (active) | 1.69 µM (inactive) | 2.43 µM (inactive) | 1.72 µM (inactive) | –
20 | Oc1ccc2c(O)cc(-c3ccccc3)nc2c1 | 18.3 µM (inactive) | 18.7 µM (inactive) | 26.2 µM (inactive) | 19.9 µM (inactive) | 26.5 µM (inactive) | 19.5 µM (inactive) | 48 µM (inactive) | 25.1 µM (inactive) | 30.5 µM (inactive)
21 | Cc1cccc(C)c1NC(=O)/C(Cl)=C(/Cl)C(=O)O | 7.28 µM (inactive) | 21.3 µM (inactive) | 20.3 µM (inactive) | 6.92 µM (inactive) | 8.11 µM (inactive) | 19.9 µM (inactive) | 28.2 µM (inactive) | 15 µM (inactive) | –
22 | Cc1ccc(C(c2c(O)c3ccccc3n(-c3ccccc3)c2=O)c2c(O)c3ccccc3n(-c3ccccc3)c2=O)cc1 | > 100 µM (inactive) | > 100 µM (inactive) | > 100 µM (inactive) | > 100 µM (inactive) | > 100 µM (inactive) | > 100 µM (inactive) | > 100 µM (inactive) | > 100 µM (inactive) | –
23 | Cc1cccc(C(C)(C)C)c1NC(=O)C(C#N)C1=C(Cl)C(=O)c2ccccc2C1=O (stereo unspecified) | 14.4 µM (inactive) | 16.6 µM (inactive) | 12 µM (inactive) | 20.5 µM (inactive) | 15.5 µM (inactive) | – | 14.4 µM (inactive) | 16 µM (inactive) | –
24 | C[n+]1c2n(c3nc(N)[nH]c(=O)c31)C1OC(C2)C(O)C1O (stereo unspecified) | > 100 µM (inactive) | > 100 µM (inactive) | > 100 µM (inactive) | > 100 µM (inactive) | > 100 µM (inactive) | > 100 µM (inactive) | > 100 µM (inactive) | > 100 µM (inactive) | > 100 µM (inactive)
25 | Clc1ccc2ns[s+]c2c1 | 0.625 µM (active) | 2.61 µM (inactive) | 11.7 µM (inactive) | 0.317 µM (active) | 0.166 µM (active) | 1.97 µM (inactive) | > 100 µM (inactive) | > 100 µM (inactive) | –
26 | CN/N=C(\C(=O)Nc1ccc([N+](=O)[O-])cc1[N+](=O)[O-])C1NC(=O)NC1=O (stereo unspecified) | > 100 µM (inactive) | > 100 µM (inactive) | > 100 µM (inactive) | > 100 µM (inactive) | > 100 µM (inactive) | > 100 µM (inactive) | > 100 µM (inactive) | – | –
27 | NC(=O)NO [HYDROXYUREA] | 1450 µM (inactive) | – | 933 µM (inactive) | 436 µM (inactive) | 713 µM (inactive) | 1420 µM (inactive) | 2160 µM (inactive) | 820 µM (inactive) | –
28 | CC(C)(C)C(C#N)(C#N)c1ccc(C(C#N)(C#N)C(C)(C)C)nn1 | > 100 µM (inactive) | > 100 µM (inactive) | – | > 100 µM (inactive) | > 100 µM (inactive) | > 100 µM (inactive) | 74.8 µM (inactive) | 38.6 µM (inactive) | > 100 µM (inactive)
29 | COc1ccc(CNc2nc3c(NC(C)=O)cc(C(F)(F)F)cc3nc2-c2ccccc2)cc1OC | > 100 µM (inactive) | 15.2 µM (inactive) | – | > 100 µM (inactive) | 16.4 µM (inactive) | > 100 µM (inactive) | 10.7 µM (inactive) | 78 µM (inactive) | –
30 | Cc1ccc(S(=O)OC2C3CC4CC(C3)CC2C4)cc1 (stereo unspecified) | > 100 µM (inactive) | > 100 µM (inactive) | > 100 µM (inactive) | > 100 µM (inactive) | > 100 µM (inactive) | > 100 µM (inactive) | > 100 µM (inactive) | > 100 µM (inactive) | –
